# Source: patent publication US20250353891A1 (MEDIMMUNE LIMITED, priority 2022, published 2025)
# Starred links: 1 amine or outer side, 2 acyl side, 3 side chain; linkers in the order of their positions; H or OH if unused. Non-standard residues stand in square brackets, D forms with d. Residues, ends and D or L forms follow the SMILES beside them. Groups on a side chain read outwards from the residue. *: point of attachment. γGlu = O=C(O)[C@H](CCC(=O)[*:2])N[*:1]; Stearoyl = CCCCCCCCCCCCCCCCCC(=O)*; Palmitoyl = CCCCCCCCCCCCCCCC(=O)*; αMeF = C[C@](N)(Cc1ccccc1)C(=O)O; PEG4 = NCCOCCOCCOCCOCCC(=O)O; PEG2 = NCCOCCOCCC(=O)O; Aib = CC(C)(N)C(=O)O
# Experiments:
# [1] = biological target: human GLP-1 receptor (hGLP-1R) (Homo sapiens, UniProt P43220); test: cAMP production (HTRF) in CHO cells expressing hGLP-1R; format: cell-based; parameters: expressed in transfected cells; conditions: for EC50: Table 6, peptides modified at position 17, cAMP in CHO hGLP-1R cells, geometric mean, read-out: hGLP-1R EC50; for % Relative Potency Ratio: Table 6, % GLP-1R activity relative to GLP-1 / % GlucR activity relative to glucagon
# Sequence of human GLP-1 receptor (hGLP-1R) (P43220 24-463): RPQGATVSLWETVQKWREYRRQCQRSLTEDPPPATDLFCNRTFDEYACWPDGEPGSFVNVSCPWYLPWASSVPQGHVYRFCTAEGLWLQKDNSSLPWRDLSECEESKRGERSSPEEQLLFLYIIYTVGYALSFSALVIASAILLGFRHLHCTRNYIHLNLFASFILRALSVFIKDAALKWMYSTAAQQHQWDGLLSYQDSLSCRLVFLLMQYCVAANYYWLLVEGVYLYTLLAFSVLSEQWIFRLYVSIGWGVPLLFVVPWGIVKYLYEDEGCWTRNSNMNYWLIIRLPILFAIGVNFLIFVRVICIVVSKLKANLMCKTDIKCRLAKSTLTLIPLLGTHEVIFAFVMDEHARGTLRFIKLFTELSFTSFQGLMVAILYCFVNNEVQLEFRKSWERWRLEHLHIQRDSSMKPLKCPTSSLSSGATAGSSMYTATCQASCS
# Outline: (§1)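 Potency values represent EC50 from 4-parameter logistic curves of HTRF % Delta F signal. Receptor-expressing CHO cells (hGCGR 2×10^5 cells/mL, hGLP-1R 1×10^5 cells/mL) were exposed for 30 min at room temperature before two-step cAMP detection.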
# [2] = biological target: human glucagon receptor (hGCGR) (Homo sapiens, UniProt P47871); test: cAMP production (HTRF) in CHO cells expressing hGCGR; format: cell-based; parameters: expressed in transfected cells; conditions: Table 6, peptides modified at position 17; cAMP in CHO hGCGR cells; geometric mean; read-out: hGluc-R EC50
# Sequence of human glucagon receptor (hGCGR) (P47871 26-477): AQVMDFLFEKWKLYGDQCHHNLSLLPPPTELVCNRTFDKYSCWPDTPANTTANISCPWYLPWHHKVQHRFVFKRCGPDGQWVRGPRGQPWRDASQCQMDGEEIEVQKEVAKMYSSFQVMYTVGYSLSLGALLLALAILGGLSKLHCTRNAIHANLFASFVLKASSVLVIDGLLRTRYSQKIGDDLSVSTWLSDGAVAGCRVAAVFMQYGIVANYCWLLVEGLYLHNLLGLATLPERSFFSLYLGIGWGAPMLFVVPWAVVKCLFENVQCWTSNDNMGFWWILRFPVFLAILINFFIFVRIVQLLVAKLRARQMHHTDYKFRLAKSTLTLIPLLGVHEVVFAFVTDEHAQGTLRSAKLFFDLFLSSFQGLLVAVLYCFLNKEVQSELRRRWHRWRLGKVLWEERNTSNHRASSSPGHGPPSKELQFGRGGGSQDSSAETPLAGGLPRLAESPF
# Outline: as §1
EC50 [1] [pM],% Relative Potency Ratio [1],EC50 [2] [pM],Compound
3.42,42.6,73.7,CCCCCCCCCCCCCCCC(=O)N[C@@H](CCC(=O)N[C@@H](CCC(=O)NCCOCCOCCOCCOCCC(=O)NCCCC[C@H](NC(=O)[C@H](CO)NC(=O)[C@H](CC(=O)O)NC(=O)[C@H](CC(C)C)NC(=O)[C@](C)(Cc1ccccc1)NC(=O)[C@H](CCCCN)NC(=O)[C@H](CO)NC(=O)[C@@H](NC(=O)[C@H](CC(=O)O)NC(=O)[C@H](CO)NC(=O)[C@@H](NC(=O)[C@](C)(Cc1ccccc1)NC(=O)[C@H](CO)NC(=O)CNC(=O)[C@H](CCC(N)=O)NC(=O)C(C)(C)NC(=O)[C@@H](N)Cc1c[nH]cn1)[C@@H](C)O)C(C)C)C(=O)N[C@@H](C)C(=O)N[C@@H](C)C(=O)N[C@@H](CCC(N)=O)C(=O)N[C@@H](CC(=O)O)C(=O)N[C@@](C)(Cc1ccccc1)C(=O)N[C@H](C(=O)N[C@@H](CCC(=O)O)C(=O)NC(C)(C)C(=O)N[C@@H](CC(C)C)C(=O)N[C@@H](CCC(=O)O)C(=O)N[C@@H](C)C(=O)NCC(=O)NCC(N)=O)C(C)C)C(=O)O)C(=O)O [Peptide 72] (H-H[Aib]QGS[αMeF]TSDVSK[αMeF]LDSK([PEG4-γGlu-γGlu-Palmitoyl])AAQD[αMeF]VE[Aib]LEAGG-NH2)
18.9,293.5,2800,CCCCCCCCCCCCCCCC(=O)N[C@@H](CCC(=O)N[C@@H](CCC(=O)NCCOCCOCCC(=O)NCCOCCOCCC(=O)NCCCC[C@H](NC(=O)[C@H](CO)NC(=O)[C@H](CC(=O)O)NC(=O)[C@H](CC(C)C)NC(=O)[C@](C)(Cc1ccccc1)NC(=O)[C@H](CCCCN)NC(=O)[C@H](CO)NC(=O)[C@@H](NC(=O)[C@H](CC(=O)O)NC(=O)[C@H](CO)NC(=O)[C@@H](NC(=O)[C@](C)(Cc1ccccc1)NC(=O)[C@H](CO)NC(=O)CNC(=O)[C@H](CCC(N)=O)NC(=O)C(C)(C)NC(=O)[C@@H](N)Cc1c[nH]cn1)[C@@H](C)O)C(C)C)C(=O)N[C@@H](C)C(=O)N[C@@H](C)C(=O)N[C@@H](CCC(N)=O)C(=O)N[C@@H](CC(=O)O)C(=O)N[C@H](C(=O)N[C@H](C(=O)N[C@@H](CCC(N)=O)C(=O)N[C@H](C(=O)N[C@H](C(=O)N[C@@H](C)C(=O)N[C@@H](CC(N)=O)C(N)=O)[C@@H](C)CC)[C@@H](C)CC)C(C)C)[C@@H](C)CC)C(=O)O)C(=O)O [Peptide 75] (H-H[Aib]QGS[αMeF]TSDVSK[αMeF]LDSK([PEG2-PEG2-γGlu-γGlu-Palmitoyl])AAQDIVQIIAN-NH2; N-terminus assumed)
1.78,378.6,340,CCCCCCCCCCCCCCCCCC(=O)N[C@@H](CCC(=O)N[C@@H](CCC(=O)NCCOCCOCCC(=O)NCCOCCOCCC(=O)NCCCC[C@H](NC(=O)[C@H](CO)NC(=O)[C@H](CC(=O)O)NC(=O)[C@H](CC(C)C)NC(=O)[C@](C)(Cc1ccccc1)NC(=O)[C@H](CCCCN)NC(=O)[C@H](CO)NC(=O)[C@@H](NC(=O)[C@H](CC(=O)O)NC(=O)[C@H](CO)NC(=O)[C@@H](NC(=O)[C@](C)(Cc1ccccc1)NC(=O)[C@H](CO)NC(=O)CNC(=O)[C@H](CCC(N)=O)NC(=O)C(C)(C)NC(=O)[C@@H](N)Cc1c[nH]cn1)[C@@H](C)O)C(C)C)C(=O)N[C@@H](C)C(=O)N[C@@H](C)C(=O)N[C@@H](CCC(N)=O)C(=O)N[C@@H](CC(=O)O)C(=O)N[C@@](C)(Cc1ccccc1)C(=O)N[C@H](C(=O)N[C@@H](CCC(N)=O)C(=O)NC(C)(C)C(=O)N[C@H](C(=O)N[C@H](C(=O)N[C@@H](CCC(=O)O)C(=O)NCC(=O)NCC(N)=O)C(C)C)C(C)C)C(C)C)C(=O)O)C(=O)O [Peptide 76] (H-H[Aib]QGS[αMeF]TSDVSK[αMeF]LDSK([PEG2-PEG2-γGlu-γGlu-Stearoyl])AAQD[αMeF]VQ[Aib]VVEGG-NH2; N-terminus assumed)
8.68,55.5,243,CCCCCCCCCCCCCCCCCC(=O)N[C@@H](CCC(=O)N[C@@H](CCC(=O)NCCOCCOCCC(=O)NCCOCCOCCC(=O)NCCCC[C@H](NC(=O)[C@H](CO)NC(=O)[C@H](CC(=O)O)NC(=O)[C@H](CC(C)C)NC(=O)[C@](C)(Cc1ccccc1)NC(=O)[C@H](CCCCN)NC(=O)[C@H](CO)NC(=O)[C@@H](NC(=O)[C@H](CC(=O)O)NC(=O)[C@H](CO)NC(=O)[C@@H](NC(=O)[C@](C)(Cc1ccccc1)NC(=O)[C@H](CO)NC(=O)CNC(=O)[C@H](CCC(N)=O)NC(=O)C(C)(C)NC(=O)[C@@H](N)Cc1c[nH]cn1)[C@@H](C)O)C(C)C)C(=O)N[C@@H](C)C(=O)N[C@@H](C)C(=O)N[C@@H](CCC(N)=O)C(=O)N[C@@H](CC(=O)O)C(=O)N[C@@](C)(Cc1ccccc1)C(=O)N[C@H](C(=O)N[C@@H](CCC(N)=O)C(=O)NC(C)(C)C(=O)N[C@@H](CC(C)C)C(=O)N[C@H](C(=O)N[C@@H](CO)C(=O)NCC(N)=O)[C@@H](C)CC)C(C)C)C(=O)O)C(=O)O [Peptide 77] (H-H[Aib]QGS[αMeF]TSDVSK[αMeF]LDSK([PEG2-PEG2-γGlu-γGlu-Stearoyl])AAQD[αMeF]VQ[Aib]LISG-NH2; N-terminus assumed)
1.73,12.2,10.7,CCCCCCCCCCCCCCCC(=O)N[C@@H](CCC(=O)N[C@@H](CCC(=O)NCCOCCOCCC(=O)NCCOCCOCCC(=O)NCCCC[C@H](NC(=O)[C@H](CO)NC(=O)[C@H](CC(=O)O)NC(=O)[C@H](CC(C)C)NC(=O)[C@](C)(Cc1ccccc1)NC(=O)[C@H](CCCCN)NC(=O)[C@H](CO)NC(=O)[C@@H](NC(=O)[C@H](CC(=O)O)NC(=O)[C@H](CO)NC(=O)[C@@H](NC(=O)[C@](C)(Cc1ccccc1)NC(=O)[C@H](CO)NC(=O)CNC(=O)[C@H](CCC(N)=O)NC(=O)[C@H](CO)NC(=O)[C@@H](N)Cc1c[nH]cn1)[C@@H](C)O)C(C)C)C(=O)N[C@@H](C)C(=O)N[C@@H](C)C(=O)N[C@@H](CCC(N)=O)C(=O)N[C@@H](CC(=O)O)C(=O)N[C@@](C)(Cc1ccccc1)C(=O)N[C@H](C(=O)N[C@@H](CCC(N)=O)C(=O)NC(C)(C)C(=O)N[C@@H](CC(C)C)C(=O)N[C@@H](CCC(=O)O)C(=O)N[C@@H](C)C(=O)NCC(=O)NCC(N)=O)C(C)C)C(=O)O)C(=O)O [Peptide 79] (H-HSQGS[αMeF]TSDVSK[αMeF]LDSK([PEG2-PEG2-γGlu-γGlu-Palmitoyl])AAQD[αMeF]VQ[Aib]LEAGG-NH2; N-terminus assumed)
1.19,22.6,13.5,CCCCCCCCCCCCCCCCCC(=O)N[C@@H](CCC(=O)N[C@@H](CCC(=O)NCCOCCOCCC(=O)NCCOCCOCCC(=O)NCCCC[C@H](NC(=O)[C@H](CO)NC(=O)[C@H](CC(=O)O)NC(=O)[C@H](CC(C)C)NC(=O)[C@](C)(Cc1ccccc1)NC(=O)[C@H](CCCCN)NC(=O)[C@H](CO)NC(=O)[C@@H](NC(=O)[C@H](CC(=O)O)NC(=O)[C@H](CO)NC(=O)[C@@H](NC(=O)[C@](C)(Cc1ccccc1)NC(=O)[C@H](CO)NC(=O)CNC(=O)[C@H](CCC(N)=O)NC(=O)[C@H](CO)NC(=O)[C@@H](N)Cc1c[nH]cn1)[C@@H](C)O)C(C)C)C(=O)N[C@@H](C)C(=O)N[C@@H](C)C(=O)N[C@@H](CCC(N)=O)C(=O)N[C@@H](CC(=O)O)C(=O)N[C@@](C)(Cc1ccccc1)C(=O)N[C@H](C(=O)N[C@@H](CCC(=O)O)C(=O)NC(C)(C)C(=O)N[C@@H](CC(C)C)C(=O)N[C@@H](CCC(=O)O)C(=O)N[C@@H](C)C(=O)NCC(=O)NCC(N)=O)C(C)C)C(=O)O)C(=O)O [Peptide 81] (H-HSQGS[αMeF]TSDVSK[αMeF]LDSK([PEG2-PEG2-γGlu-γGlu-Stearoyl])AAQD[αMeF]VE[Aib]LEAGG-NH2; N-terminus assumed)
1.04,29.6,15.6,CCCCCCCCCCCCCCCCCC(=O)N[C@@H](CCC(=O)N[C@@H](CCC(=O)NCCOCCOCCC(=O)NCCOCCOCCC(=O)NCCCC[C@H](NC(=O)[C@H](CO)NC(=O)[C@H](CC(=O)O)NC(=O)[C@H](CC(C)C)NC(=O)[C@](C)(Cc1ccccc1)NC(=O)[C@H](CCCCN)NC(=O)[C@H](CO)NC(=O)[C@@H](NC(=O)[C@H](CC(=O)O)NC(=O)[C@H](CO)NC(=O)[C@@H](NC(=O)[C@](C)(Cc1ccccc1)NC(=O)[C@H](CO)NC(=O)CNC(=O)[C@H](CCC(N)=O)NC(=O)[C@H](CO)NC(=O)[C@@H](N)Cc1c[nH]cn1)[C@@H](C)O)C(C)C)C(=O)N[C@@H](C)C(=O)N[C@@H](C)C(=O)N[C@@H](CCC(N)=O)C(=O)N[C@@H](CC(=O)O)C(=O)N[C@@](C)(Cc1ccccc1)C(=O)N[C@H](C(=O)N[C@@H](CCC(N)=O)C(=O)NC(C)(C)C(=O)N[C@H](C(=O)N[C@H](C(=O)N[C@@H](CC(N)=O)C(=O)N[C@H](C(N)=O)[C@@H](C)O)[C@@H](C)CC)[C@@H](C)CC)C(C)C)C(=O)O)C(=O)O [Peptide 83] (H-HSQGS[αMeF]TSDVSK[αMeF]LDSK([PEG2-PEG2-γGlu-γGlu-Stearoyl])AAQD[αMeF]VQ[Aib]IINT-NH2)
2.8,31.7,44.9,CCCCCCCCCCCCCCCCCC(=O)N[C@@H](CCC(=O)N[C@@H](CCC(=O)NCCOCCOCCC(=O)NCCOCCOCCC(=O)NCCCC[C@H](NC(=O)[C@H](CO)NC(=O)[C@H](CC(=O)O)NC(=O)[C@H](CC(C)C)NC(=O)[C@](C)(Cc1ccccc1)NC(=O)[C@H](CCCCN)NC(=O)[C@H](CO)NC(=O)[C@@H](NC(=O)[C@H](CC(=O)O)NC(=O)[C@H](CO)NC(=O)[C@@H](NC(=O)[C@](C)(Cc1ccccc1)NC(=O)[C@H](CO)NC(=O)CNC(=O)[C@H](CCC(N)=O)NC(=O)[C@H](CO)NC(=O)[C@@H](N)Cc1c[nH]cn1)[C@@H](C)O)C(C)C)C(=O)N[C@@H](C)C(=O)N[C@@H](C)C(=O)N[C@@H](CCC(N)=O)C(=O)N[C@@H](CC(=O)O)C(=O)N[C@@](C)(Cc1ccccc1)C(=O)N[C@H](C(=O)N[C@@H](CCC(N)=O)C(=O)NC(C)(C)C(=O)N[C@@H](CC(C)C)C(=O)N[C@@H](CC(C)C)C(=O)N[C@@H](CC(N)=O)C(=O)N[C@H](C(N)=O)[C@@H](C)O)C(C)C)C(=O)O)C(=O)O [Peptide 84] (H-HSQGS[αMeF]TSDVSK[αMeF]LDSK([PEG2-PEG2-γGlu-γGlu-Stearoyl])AAQD[αMeF]VQ[Aib]LLNT-NH2)
